From patent US7022856B2, “Carboline derivatives” (LIlly Icos LLC., priority 2001, dated 2006) come the findings set out here.

The target of the experiment is T1, human recombinant PDE5 (Homo sapiens, UniProt O76074).
T1 construct: host or cells: Saccharomyces cerevisiae strain BJ2-54 (ATCC 74465)
As to the kind of experiment: cGMP-PDE inhibition, one-step assay with human recombinant PDE5. Type of experiment: biochemical. To be noted: 0.15 μM 8-[H3]-cGMP, 30 min. On the procedure: The compounds of structural formula (I) were tested for an ability to inhibit PDE5. The ability of a compound to inhibit PDE5 activity is related to the IC50 value for the compound, i.e., the concentration of inhibitor required for 50% inhibition of enzyme activity. The IC50 value for compounds pounds of structural formula (I) were determined using recombinant human PDE5.
Recombinant production of human PDE1B, PDE2, PDE4A, PDE4B, PDE4C, PDE4D, PDE5, and PDE7 was carried out similarly to that described in Example 7 of U.S. Pat. No. 5,702,936, incorporated herein by reference, except that the yeast transformation vector employed, which is derived from the basic ADH2 plasmid described in Price et al., Methods in Enzymology, 185, pp. 308–318 (1990), incorporated yeast ADH2 promoter and terminator sequences and the Saccharomyces cerevisiae host was the protease-deficient strain BJ2-54 deposited on Aug. 31, 1998 with the American Type Culture Collection, Manassas, Va., under accession number ATCC 74465. Transformed host cells were grown in 2×SC-leu medium, pH 6.2, with trace metals, and vitamins. After 24 hours, YEP medium-containing glycerol was added to a final concentration of 2×YET/3% glycerol. Approxiately 24 hr later, cells were harvested, washed, and stored at −70° C. […]
Cell pellets (29 g) were thawed on ice with an equal volume of Lysis Buffer (25 mM Tris HCl, pH 8, 5 mM MgCl2, 0.25 mM DTT, 1 mM benzamidine, and 10 μM ZnSO4). Cells were lysed in a Microfluidizer® (Microfluidics Corp.) using nitrogen at 20,000 psi. The lysate was centrifuged and filtered through 0.45 μm disposable filters. The filtrate was applied to a 150 mL column of Q SEPHAROSE® Fast-Flow (Pharmacia). The column was washed with 1.5 volumes of Buffer A (20 mM Bis-Tris Propane, pH 6.8, 1 mM MgCl2, 0.25 mM DTT, 10 μM ZnSO4) and eluted with a step gradient of 125 mM NaCl in Buffer A followed by a linear gradient of 125–1000 mM NaCl in Buffer A. Active fractions from the linear gradient were applied to a 180 mL hydroxyapatite column in Buffer B (20 mM Bis-Tris Propane (pH 6.8), 1 mM MgCl2, 0.25 mM DTT, 10 μM ZnSO4, and 250 mM KCl). After loading, the column was washed with 2 volumes of Buffer B and eluted with a linear gradient of 0–125 mM potassium phosphate in Buffer B. Active fractions were pooled, precipitated with 60% ammonium sulfate, and resuspended in Buffer C (20 mM Bis-Tris Propane, pH 6.8, 125 mM NaCl, 0.5 mM DTT, and 10 μM ZnSO4). The pool was applied to a 140 mL column of SEPHACRYL® S-300 HR and eluted with Buffer C. Active fractions were diluted to 50% glycerol and stored at −20° C.
cGMP-PDE activity of compounds of the present invention was measured using a one-step assay adapted from Wells et al., Biochim. Biophys. Acta, 384, 430 (1975). The reaction medium contained 50 mM Tris-HCl, pH 7.5, 5 mM magnesium acetate. 250 μg/ml 5′-Nucleotidase, 1 mM EGTA, and 0.15 μM 8-[H^3]-cGMP. Unless otherwise indicated, the enzyme used was a human recombinant PDE5 (ICOS Corp., Bothell, Wash.).
Compounds of the invention were dissolved in DMSO finally present at 2% in the assay.
As to `O=C(c1cc2ccccc2s1)N1CCc2c([nH]c3ccccc23)C1c1ccccc1` (stereo not drawn) [Example 86], the IC50 stood at 0.9 µM.
Take `O=C(/C=C/c1cccc(CCC(=O)N2CCc3c([nH]c4ccccc34)C2c2ccc3c(c2)OCO3)c1)N1CCc2c([nH]c3ccccc23)C1c1ccc2c(c1)OCO2` (stereo not drawn) [Example 13a]: the IC50 was 0.48 µM.
As to `COc1ccc(C2c3[nH]c4ccccc4c3CCN2C(=O)c2cc3ccccc3s2)cc1Cl` (stereo not drawn) [Example 20], the IC50 came out at 0.42 µM.
Take `Cc1ccc(C2c3[nH]c4ccccc4c3CCN2C(=O)c2cc3ccccc3s2)cc1` (stereo not drawn) [Example 83]: the IC50 came out at 0.082 µM.
For the molecule `O=C(CN1CCOCC1)Nc1ccc2sc(C(=O)N3CCc4c([nH]c5ccccc45)C3c3ccc4c(c3)OCO4)cc2c1` (stereo not drawn) [Example 27], the IC50 stood at 0.04 µM.
As for `O=C(c1cc2c(Br)cccc2s1)N1CCc2c([nH]c3ccccc23)C1c1ccc2c(c1)OCO2` (stereo not drawn) [Example 35], the IC50 was found to be 0.41 µM.
Consider `CN1CCN(CC(=O)Nc2ccc3sc(C(=O)N4CCc5c([nH]c6ccccc56)C4c4ccc5c(c4)OCO5)cc3c2)CC1` (stereo not drawn) [Example 28], for which the IC50 amounted to 0.12 µM.
Consider `CN(C)Cc1ccc2sc(C(=O)N3CCc4c([nH]c5ccccc45)C3c3ccc4c(c3)OCO4)cc2c1` (stereo not drawn) [Example 43], for which the IC50 stood at 0.29 µM.
Turning to `c1ccc(-c2ccnc(N3CCc4c([nH]c5ccccc45)C3c3ccc4c(c3)OCO4)n2)cc1` (stereo not drawn) [Example 51], the IC50 was 0.03 µM.
As to `CN(C)Cc1ccc(C(=O)N2CCc3c([nH]c4ccccc34)C2c2ccc3c(c2)OCO3)s1` (stereo not drawn) [Example 42], the IC50 is 0.85 µM.
Take `Cc1ncn(-c2cc(N3CCc4c([nH]c5ccccc45)C3c3ccc4c(c3)CCO4)ncn2)c1C` (stereo not drawn) [Example 71]: the IC50 worked out at 0.02 µM.
Regarding `O=C(CCl)Nc1ccc2sc(C(=O)N3CCc4c([nH]c5ccccc45)C3c3ccc4c(c3)OCO4)cc2c1` (stereo not drawn) [Example 25], the IC50 stood at 0.04 µM.
As to `O=C(Cc1ccccc1)Nc1ccc(C(=O)N2CCc3c([nH]c4ccccc34)C2c2ccc3c(c2)OCO3)cc1` (stereo not drawn) [Example 10, N-{4-[1-(1-Benzo[1,3]dioxol-5-yl-1,3,4,9-tetrahydro-β-carbolin-2-yl)methanoyl]phenyl}-2-phenylacetamide], the IC50 is 0.76 µM.
With `Cc1cn(-c2cc(N3CCc4c([nH]c5ccccc45)C3c3ccc4c(c3)CCO4)ncn2)cn1` (stereo not drawn) [Example 76], the IC50 is 0.01 µM.
In the case of `Oc1ccc(-c2ccnc(N3CCc4c([nH]c5ccccc45)C3c3ccc4c(c3)CCO4)n2)cc1` (stereo not drawn) [Example 72], the IC50 was determined as 0.01 µM.
On to `O=C(c1cc2ccccc2s1)N1CCc2c([nH]c3ccccc23)C1c1cccc(Cl)c1` (stereo not drawn) [Example 85], for which the IC50 was 0.835 µM.
On to `COc1cc2nc(N3CCc4c([nH]c5ccccc45)C3c3ccc4c(c3)OCO4)nc(Cl)c2cc1OC` (stereo not drawn) [Example 47a, 1-Benzo[1,3]dioxol-5-yl-2-(4-chloro-6,7-dimethoxyquinazolin-2-yl)-2,3,4,9-tetrahydro-1H-β-carboline], for which the concentration for half-maximal inhibition (IC50) was 0.027 µM.
Consider `Cc1cn(-c2ccnc(N3CCc4c([nH]c5ccccc45)C3c3ccc4c(c3)CCO4)n2)cn1` (stereo not drawn) [Example 74], for which the IC50 is 0.04 µM.
For `CN(C)c1ccc(C(=O)N2CCc3c([nH]c4ccccc34)C2c2ccc3c(c2)OCO3)cc1` (stereo not drawn) [Example 6, 1-(1-Benzo[1,3]dioxol-5-yl-1,3,4,9-tetrahydro-β-carbolin-2-yl)-1-(4-dimethylaminophenyl)methanone] the value was 0.67 µM.
The result for `O=C(c1ccc(-c2cccnc2)s1)N1CCc2c([nH]c3ccccc23)C1c1ccc2c(c1)OCO2` (stereo not drawn) [Example 18] reads 0.11 µM; that for `c1coc(-c2ccnc(N3CCc4c([nH]c5ccccc45)C3c3ccc4c(c3)CCO4)n2)c1` (stereo not drawn) [Example 66], 0.34 µM.
The result for `c1ccc(-c2ccnc(N3CCc4c([nH]c5ccccc45)C3c3ccc4c(c3)CCO4)n2)cc1` (stereo not drawn) [Example 58] reads 0.03 µM; that for `O=C(O)CC(=O)Nc1ccc2sc(N3CCc4c([nH]c5ccccc45)C3c3ccc4c(c3)OCO4)cc2c1` (stereo not drawn) [Example 48], 0.02 µM.
`Oc1ccc(-c2cc(N3CCc4c([nH]c5ccccc45)C3c3ccc4c(c3)CCO4)ncn2)cc1` (stereo not drawn) [Example 80]: the IC50 came to 0.05 µM.
